According to patent US20090269795A1, “Mutant alpha4betadelta GABAA receptor and methods of treating anxiety or irritability” (priority 2007, published 2009):

Assays:
α1β2δ receptors = target: T1, α1β2δ receptors (Rattus norvegicus, UniProt P62813+P63138); assay: Whole cell patch clamp of GABA-gated current, recombinant receptors in HEK-293 cells; assay type: cell-based, rat α1, rat β2, human δ; conditions: 30 nM THP
T1 construct: expressed in transfected cells; host or cells: HEK-293
From the text: Recombinant receptors: Transfection—Plasmids obtained from S. Vicini (rat α1, α5, β2, β3 and γ2), P. Whiting (human α4 and δ) and N. L. Harrison (mouse α4) were propagated in E coli DH5α and prepared using Qiagen Maxi- or Midi-prep kits. (Rat, mouse and human α1, β2, β3 and γ2 subunits are identical or nearly identical.) All receptors were transfected at a 1:1:1 ratio, except α1β2γ2 (1:1:5)^12, α4βδ (5:1:5)^13 and α4β2γ2 (5:1:1). HEK-293 cells were maintained in medium (DMEM:Ham's F-12 1:1) supplemented with 10% fetal calf serum at 37° C. in a humid 5% CO2 atmosphere. Cells were transfected using calcium phosphate or Polyfect (Qiagen) and co-transfected with enhanced green fluorescent protein (ratio of DNA to eGFP was 6:1 or 10:1 depending on the DNA concentration) for visualization. α4-containing GABAA receptors required 2-3 d for maximal levels of expression; all other receptors were recorded 1-2 d after transfection. Because mouse α4 and human α4-containing receptors yielded the same results, the currents were averaged together.
Whole cell patch clamp recording—GABA-gated currents were recorded at room temperature (20-22° C.) at a holding potential of −50 mV^14. […] Currents were recorded using an Axopatch 1D amplifier (Axon Instruments) filtered at 2 kHz (four-pole Bessel filter) and detected at 10 kHz (pClamp 5.1). […]

α1β2γ2 receptors = target: T2, α1β2γ2 receptors (Rattus norvegicus, UniProt P62813+P63138); assay: as above; assay type: cell-based; conditions: 30 nM THP
T2 construct: expressed in transfected cells; host or cells: HEK-293
From the text: Recombinant receptors: Transfection—Plasmids obtained from S. Vicini (rat α1, α5, β2, β3 and γ2), P. Whiting (human α4 and δ) and N. L. Harrison (mouse α4) were propagated in E coli DH5α and prepared using Qiagen Maxi- or Midi-prep kits. (Rat, mouse and human α1, β2, β3 and γ2 subunits are identical or nearly identical.) All receptors were transfected at a 1:1:1 ratio, except α1β2γ2 (1:1:5)^12, α4βδ (5:1:5)^13 and α4β2γ2 (5:1:1). HEK-293 cells were maintained in medium (DMEM:Ham's F-12 1:1) supplemented with 10% fetal calf serum at 37° C. in a humid 5% CO2 atmosphere.
The pipet solution contained (in mM): N-methyl-D-glucamine chloride 120, Cs4BAPTA 5 (Calbiochem), Mg-ATP 5, and an ATP regeneration system (20 mM Tris phosphocreatine and creatine kinase). Internal [Cl^−] or the holding potential were varied, using gluconate as the anion, to alter the direction of Cl^− flow, corrected for the junction potential.
HEK-293 cells were maintained in medium (DMEM:Ham's F-12 1:1) supplemented with 10% fetal calf serum at 37° C. in a humid 5% CO2 atmosphere.

[1] = system: CA1 hippocampal pyramidal cells; assay: Tonic GABAergic current, whole cell patch clamp, hippocampal slice; assay type: cell-based, mouse
Protocol: In whole cell recordings of the tonic current, the bath contained 2 mM kynurenic acid and 5-10 mM TEA to pharmacologically isolate the GABAergic current, and in some cases, 200 nM gabazine (6-imino-3-(4-methyoxyphenyl)-1 (6H)-pyridazinebutanoic acid hydrobromide) to selectively block the synaptic GABAergic currents^22. […] In some cases, 50 μM L-655,708 was added to the bath solution to block α5-containing GABAA receptors^23.
Tonic current was recorded as the difference current produced by 120 μM gabazine, which blocks all GABAA receptor, before and after 30 nM THP^24. Current was also recorded in response to 2 s 10 mV steps in the holding potential, and current-voltage curves generated to the steady-state current. Because fast-inactivating conductances would not be excluded in a voltage ramp, stable steady-state current responses were used instead to construct the current-voltage (IV) curves. Input resistance (Rm) was calculated from the current response to voltage steps from −60 to −40 mV using Ohm's Law. The reversal potential was determined by the […] of the IV curve (−90 to −10 mV). The gabazine-sensitive slope conductance was assessed as the slope of the linear portion of outward current plot recorded before and after THP after subtraction of the gabazine-generated current (in the presence of L-655,708 to block α5-GABAA receptors). Only data with a stable baseline and pipet access resistance <10 MΩ were included in the analysis.

T1 sequence (P62813 28-455): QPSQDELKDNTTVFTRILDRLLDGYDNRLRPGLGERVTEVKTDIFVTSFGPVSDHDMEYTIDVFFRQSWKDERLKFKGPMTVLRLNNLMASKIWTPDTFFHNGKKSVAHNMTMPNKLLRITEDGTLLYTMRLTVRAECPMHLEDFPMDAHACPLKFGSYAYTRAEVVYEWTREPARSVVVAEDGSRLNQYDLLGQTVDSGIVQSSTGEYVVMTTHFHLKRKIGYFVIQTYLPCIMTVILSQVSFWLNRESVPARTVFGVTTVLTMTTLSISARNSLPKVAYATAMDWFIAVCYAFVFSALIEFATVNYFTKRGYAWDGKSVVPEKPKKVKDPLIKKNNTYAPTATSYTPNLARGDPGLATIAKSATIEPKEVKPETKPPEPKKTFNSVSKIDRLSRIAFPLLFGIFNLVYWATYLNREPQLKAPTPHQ
T1 sequence (P63138 25-474 limits assumed): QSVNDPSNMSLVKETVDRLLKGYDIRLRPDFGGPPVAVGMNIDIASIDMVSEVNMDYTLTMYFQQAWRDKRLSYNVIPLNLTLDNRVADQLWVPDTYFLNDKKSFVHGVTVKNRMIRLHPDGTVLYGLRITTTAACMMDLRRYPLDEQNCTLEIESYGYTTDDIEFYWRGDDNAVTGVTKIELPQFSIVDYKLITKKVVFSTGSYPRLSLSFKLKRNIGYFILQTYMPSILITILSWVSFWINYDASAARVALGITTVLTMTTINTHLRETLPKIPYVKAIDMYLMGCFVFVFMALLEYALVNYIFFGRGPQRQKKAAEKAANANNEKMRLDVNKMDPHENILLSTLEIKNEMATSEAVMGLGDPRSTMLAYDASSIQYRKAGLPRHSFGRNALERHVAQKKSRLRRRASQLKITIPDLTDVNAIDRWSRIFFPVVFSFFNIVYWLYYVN
T1 sequence (O14764 25-452 partner): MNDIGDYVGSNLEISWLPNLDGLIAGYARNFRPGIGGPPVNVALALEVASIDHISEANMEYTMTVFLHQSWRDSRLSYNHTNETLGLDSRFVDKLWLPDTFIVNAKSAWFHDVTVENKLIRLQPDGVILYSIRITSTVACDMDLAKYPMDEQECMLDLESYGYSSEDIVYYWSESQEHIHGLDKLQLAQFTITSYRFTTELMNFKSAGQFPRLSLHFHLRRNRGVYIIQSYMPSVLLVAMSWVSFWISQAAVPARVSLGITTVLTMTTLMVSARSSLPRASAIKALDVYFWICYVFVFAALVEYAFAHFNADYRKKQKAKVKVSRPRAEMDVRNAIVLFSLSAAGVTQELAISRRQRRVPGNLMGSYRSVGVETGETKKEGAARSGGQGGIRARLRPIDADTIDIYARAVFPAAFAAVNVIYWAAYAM
T2 sequence (P62813 28-455): as the sequence (P62813 28-455) above
T2 sequence (P63138 25-474 limits assumed): as the sequence (P63138 25-474 limits assumed) above
T2 sequence (P18508 39-466 partner): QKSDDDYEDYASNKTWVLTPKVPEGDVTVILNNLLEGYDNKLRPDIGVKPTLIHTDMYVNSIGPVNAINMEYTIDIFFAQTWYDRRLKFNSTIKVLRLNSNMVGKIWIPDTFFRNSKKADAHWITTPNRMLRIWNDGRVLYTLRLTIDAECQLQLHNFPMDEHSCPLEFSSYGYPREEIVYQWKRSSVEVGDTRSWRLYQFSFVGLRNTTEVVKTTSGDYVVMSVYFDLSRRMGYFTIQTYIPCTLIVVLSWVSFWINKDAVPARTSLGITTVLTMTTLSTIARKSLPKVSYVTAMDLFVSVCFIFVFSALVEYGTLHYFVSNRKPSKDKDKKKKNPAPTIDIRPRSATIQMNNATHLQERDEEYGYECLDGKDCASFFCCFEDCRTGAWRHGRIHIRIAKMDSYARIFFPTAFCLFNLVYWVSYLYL

CC(=O)[C@H]1CC[C@H]2[C@@H]3CC[C@H]4C[C@H](O)CC[C@]4(C)[C@H]3CC[C@]12C [THP, 3α-OH-5α[β]-pregnan-20-one]
effect on outward current (α1β2δ receptors): either increased or had no effect | effect on outward current (α1β2γ2 receptors): either increased or had no effect | reduction of outward tonic current ([1]; 30 nM THP, pubertal mice, low internal Cl−): 48±6% | effect on outward tonic current ([1]; before puberty): increased the outward tonic current | effect on tonic GABAergic current, inward ([1]; pubertal, cell loaded with Cl− to produce inward current): increased the tonic GABAergic current | effect on outward tonic current ([1]; δ−/− mouse after puberty): increased the outward tonic current
